Results reported in patent US9499547B2 (BAYER INTELLECTUAL PROPERTY GMBH, priority 2011, dated 2016).
Counter-ions that a name gives are not always drawn.

Assays:
[1] = biological target: T1, human full-length MKNK1 (Homo sapiens (Human), UniProt Q9BUB5, T344D); test: MKNK1 kinase assay (MKNK1 TR-FRET assay); assay type: biochemical; conditions: 10 μM ATP final conc.; 15 min preincubation with enzyme
Method: MKNK1-inhibitory activity of compounds of the present invention was quantified employing the MKNK1 TR-FRET assay as described in the following paragraphs.
As substrate for the kinase reaction the biotinylated peptide biotin-Ahx-[…] (C-terminus in amide form) was used which can be purchased e.g. form the company Biosyntan (Berlin-Buch, Germany).
(§1) For the assay 50 nL of a 100 fold concentrated solution of the test compound in DMSO was pipetted into a black low volume 384 well microtiter plate (Greiner Bio-One, Frickenhausen, Germany), 2 μL of a solution of MKNK1 in aqueous assay buffer [50 mM HEPES pH 7.5, 5 mM magnesium chloride, 1.0 mM dithiothreitol, 0.005% (v/v) Nonidet-P40 (Sigma)] was added and the mixture was incubated for 15 min at 22° C. to allow pre-binding of the test compounds to the enzyme before the start of the kinase reaction. Then the kinase reaction was started by the addition of 3 μL of a solution of adenosine-tri-phosphate (ATP, 16.7 μM=>final conc. in the 5 μL assay volume is 10 μM) and substrate (0.1 μM=>final conc. in the 5 μL assay volume is 0.06 μM) in assay buffer and the resulting mixture was incubated for a reaction time of 45 min at 22° C. The concentration of MKNK1 was adjusted depending of the activity of the enzyme lot and was chosen appropriate to have the assay in the linear range, typical concentrations were in the range of 0.05 μg/ml. The reaction was stopped by the addition of 5 μL of a solution of TR-FRET detection reagents (5 nM streptavidine-XL665 [Cisbio Bioassays, Codolet, France] and 1 nM anti-ribosomal protein S6 (pSer236)-antibody from Invitrogen [#44921G] and 1 nM LANCE EU-W1024 labeled ProteinG [Perkin-Elmer, product no. AD0071]) in an aqueous EDTA-solution (100 mM EDTA, 0.1% (w/v) bovine serum albumin in 50 mM HEPES pH 7.5).
(§2) The resulting mixture was incubated for 1 h at 22° C. to allow the formation of complex between the phosphorylated biotinylated peptide and the detection reagents. Subsequently the amount of phosphorylated substrate was evaluated by measurement of the resonance energy transfer from the Eu-chelate to the streptavidine-XL. Therefore, the fluorescence emissions at 620 nm and 665 nm after excitation at 350 nm were measured in a TR-FRET reader, e.g. a Rubystar (BMG Labtechnologies, Offenburg, Germany) or a Viewlux (Perkin-Elmer). The ratio of the emissions at 665 nm and at […] was taken as the measure for the amount of phosphorylated substrate. The data were normalised (enzyme reaction without inhibitor=0% inhibition, all other assay components but no enzyme=100% inhibition).

[2] = biological target: T1, human full-length MKNK1; test: MKNK1 kinase high ATP assay (TR-FRET-based); assay type: biochemical; conditions: 2 mM ATP final conc.; 15 min preincubation with enzyme
Method: MKNK1 Kinase High ATP Assay
MKNK1-inhibitory activity at high ATP of compounds of the present invention after their preincubation with MKNK1 was quantified employing the TR-FRET-based MKNK1 high ATP assay as described in the following paragraphs.
As substrate for the kinase reaction the biotinylated peptide biotin-Ahx-[…] (C-terminus in amide form) was used, which can be purchased e.g. from the company Biosyntan (Berlin-Buch, Germany).
as §1, with “3.3 mM=>final” for “16.7 μM=>final”, “2 mM)” for “10 μM)”, “30” for “45”, “0.003 μg/mL.” for “0.05 μg/ml.”
as §2

T1 sequence (Q9BUB5 other isoform, or with tags, fused parts or gaps T344D): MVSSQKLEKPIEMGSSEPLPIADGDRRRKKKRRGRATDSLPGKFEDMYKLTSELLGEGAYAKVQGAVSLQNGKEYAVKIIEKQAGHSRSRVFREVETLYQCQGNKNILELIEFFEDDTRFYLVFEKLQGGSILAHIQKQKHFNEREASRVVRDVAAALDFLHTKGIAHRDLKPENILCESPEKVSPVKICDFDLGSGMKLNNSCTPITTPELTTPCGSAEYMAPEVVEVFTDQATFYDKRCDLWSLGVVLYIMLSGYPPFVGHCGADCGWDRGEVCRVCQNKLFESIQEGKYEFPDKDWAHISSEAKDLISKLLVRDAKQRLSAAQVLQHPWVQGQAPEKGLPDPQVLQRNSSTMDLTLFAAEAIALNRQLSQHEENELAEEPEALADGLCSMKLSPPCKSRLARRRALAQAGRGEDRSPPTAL

| Structure (SMILES) | IC50 [1] | IC50 [2] |
| --- | --- | --- |
| C[C@H](N)COc1ccc2ncc(-c3cc4c(F)cccc4o3)n2n1 [Example 45, (2S)-1-{[3-(4-Fluoro-1-benzofuran-2-yl)imidazo[1,2-b]pyridazin-6-yl]oxy}-propan-2-amine] | 17 nM | 71 nM |
| N[C@H](COc1ccc2ncc(-c3cc4ccccc4o3)n2n1)Cc1ccccc1 [Example 50, (2S)-1-{[3-(1-Benzofuran-2-yl)imidazo[1,2-b]pyridazin-6-yl]oxy}-3-phenylpropan-2-amine] | 27 nM | 54 nM |
| N[C@H]1C[C@H](COc2ccc3ncc(-c4cc5ccccc5o4)n3n2)C1 [Example 22, trans-3-({[3-(1-Benzofuran-2-yl)imidazo[1,2-b]pyridazin-6-yl]oxy}methyl)cyclobutanamine] | 6 nM | 17 nM |
| COc1cccc2oc(-c3cnc4ccc(OCCCN)nn34)cc12 [Example 4, 3-{[3-(4-Methoxy-1-benzofuran-2-yl)imidazo[1,2-b]pyridazin-6-yl]oxy}propan-1-amine] | 5 nM | 15 nM |
| N[C@H](COc1ccc2ncc(-c3cc4ccccc4o3)n2n1)c1ccccc1 [Example 17, (1S)-2-{[3-(1-Benzofuran-2-yl)imidazo[1,2-b]pyridazin-6-yl]oxy}-1-phenylethanamine] | 6 nM | 10 nM |
| N[C@@H](COc1ccc2ncc(-c3cc4ccccc4o3)n2n1)c1ccccc1 [Example 18, (1R)-2-{[3-(1-Benzofuran-2-yl)imidazo[1,2-b]pyridazin-6-yl]oxy}-1-phenylethanamine] | 22 nM | 33 nM |
| NCC(Oc1ccc2ncc(-c3cc4ccccc4o3)n2n1)C1CC1 (stereo not shown) [Example 30, 2-{[3-(1-Benzofuran-2-yl)imidazo[1,2-b]pyridazin-6-yl]oxy}-2-cyclopropylethanamine] | 41 nM | 75 nM |
| COc1ccc2oc(-c3cnc4ccc(O[C@H]5C[C@H](N)C5)nn34)cc2c1 [Example 38, trans-3-{[3-(5-Methoxy-1-benzofuran-2-yl)imidazo[1,2-b]pyridazin-6-yl]oxy}-cyclobutanamine] | 3 nM | 6 nM |
| N[C@H]1CCC[C@H]1Oc1ccc2ncc(-c3cc4ccccc4o3)n2n1 [Example 25, (1S,2R)-2-{[3-(1-Benzofuran-2-yl)imidazo[1,2-b]pyridazin-6-yl]oxy}cyclopentanamine salt with formic acid] | 7 nM | 22 nM |
| C[C@@H](N)COc1ccc2ncc(-c3cc4ccccc4o3)n2n1 [Example 42, (2R)-1-{[3-(1-Benzofuran-2-yl)imidazo[1,2-b]pyridazin-6-yl]oxy}propan-2-amine] | 15 nM | 43 nM |
| COc1cccc2oc(-c3cnc4ccc(OCC(N)C5CC5)nn34)cc12 (stereo not shown) [Example 41, 1-Cyclopropyl-2-{[3-(4-methoxy-1-benzofuran-2-yl)imidazo[1,2-b]pyridazin-6-yl]oxy}ethanamine] | 12 nM | 27 nM |
| N[C@H](COc1ccc2ncc(-c3cc4c(F)cccc4o3)n2n1)c1ccccc1 [Example 46, (1S)-2-{[3-(4-Fluoro-1-benzofuran-2-yl)imidazo[1,2-b]pyridazin-6-yl]oxy}-1-phenylethanamine] | 36 nM | 67 nM |
| N[C@H]1C[C@@H](Oc2ccc3ncc(-c4cc5ccccc5o4)n3n2)C1 [Example 3, cis-3-{[3-(1-Benzofuran-2-yl)imidazo[1,2-b]pyridazin-6-yl]oxy}cyclobutanamine] | 4 nM | 17 nM |
| NC[C@H](Oc1ccc2ncc(-c3cc4ccccc4o3)n2n1)c1ccccc1 [Example 16, (2R)-2-{[3-(1-Benzofuran-2-yl)imidazo[1,2-b]pyridazin-6-yl]oxy}-2-phenylethanamine] | 26 nM | 49 nM |
| NC1(COc2ccc3ncc(-c4cc5ccccc5o4)n3n2)CC1 [Example 51, 1-({[3-(1-Benzofuran-2-yl)imidazo[1,2-b]pyridazin-6-yl]oxy}methyl)cyclopropanamine] | 29 nM | 74 nM |
| N[C@H]1C[C@H](Oc2ccc3ncc(-c4cc5cc(Cl)ccc5o4)n3n2)C1 [Example 37, trans-3-{[3-(5-Chloro-1-benzofuran-2-yl)imidazo[1,2-b]pyridazin-6-yl]oxy}-cyclobutanamine] | 4 nM | 5 nM |
| C[C@H](CN)Oc1ccc2ncc(-c3cc4cc(Cl)ccc4o3)n2n1 [Example 15, (2R)-2-{[3-(5-Chloro-1-benzofuran-2-yl)imidazo[1,2-b]pyridazin-6-yl]oxy}-propan-1-amine] | 36 nM | 197 nM |
| NCC(COc1ccc2ncc(-c3cc4ccccc4o3)n2n1)c1ccccc1 (stereo not shown) [Example 52, 3-{[3-(1-Benzofuran-2-yl)imidazo[1,2-b]pyridazin-6-yl]oxy}-2-phenylpropan-1-amine] | 17 nM | 30 nM |
| NC[C@H]1C[C@H](Oc2ccc3ncc(-c4cc5ccccc5o4)n3n2)C1 [Example 20, 1-(trans-3-{[3-(1-Benzofuran-2-yl)imidazo[1,2-b]pyridazin-6-yl]oxy}cyclobutyl)-methanamine] | 4 nM | 6 nM |
| N[C@H]1C[C@H](Oc2ccc3ncc(-c4cc5c(F)cccc5o4)n3n2)C1 [Example 36, trans-3-{[3-(4-Fluoro-1-benzofuran-2-yl)imidazo[1,2-b]pyridazin-6-yl]oxy}-cyclobutanamine] | 1 nM | 2 nM |
| NCC(Cc1ccccc1)Oc1ccc2ncc(-c3cc4ccccc4o3)n2n1 (stereo not shown) [Example 26, 2-{[3-(1-Benzofuran-2-yl)imidazo[1,2-b]pyridazin-6-yl]oxy}-3-phenylpropan-1-amine salt with formic acid] | 15 nM | 25 nM |
| N[C@H]1CCC[C@@H]1Oc1ccc2ncc(-c3cc4ccccc4o3)n2n1 [Example 24, (1S,2S)-2-{[3-(1-Benzofuran-2-yl)imidazo[1,2-b]pyridazin-6-yl]oxy}cyclopentanamine] | 10 nM | 19 nM |
| NCCOc1ccc2ncc(-c3cc4ccccc4o3)n2n1 [Example 12, 2-{[3-(1-Benzofuran-2-yl)imidazo[1,2-b]pyridazin-6-yl]oxy}ethanamine] | 10 nM | 27 nM |
| COc1ccc2oc(-c3cnc4ccc(OCCN)nn34)cc2c1 [Example 6, 2-{[3-(5-Methoxy-1-benzofuran-2-yl)imidazo[1,2-b]pyridazin-6-yl]oxy}ethanamine] | 6 nM | 13 nM |
| CC(C)(N)CCOc1ccc2ncc(-c3cc4ccccc4o3)n2n1 [Example 14, 4-{[3-(1-Benzofuran-2-yl)imidazo[1,2-b]pyridazin-6-yl]oxy}-2-methylbutan-2-amine] | 20 nM | 39 nM |
| COc1cccc2oc(-c3cnc4ccc(OCCN)nn34)cc12 [Example 5, 2-{[3-(4-Methoxy-1-benzofuran-2-yl)imidazo[1,2-b]pyridazin-6-yl]oxy}ethanamine] | 6 nM | 18 nM |
